The values below come from ChEMBL document CHEMBL1133708, “A new class of conformationally rigid analogues of 4-amino-5-halopentanoic acids, potent inactivators of gamma-aminobutyric acid aminotransferase” (J Med Chem, 2000).

Assay [1] concerns the target T1, 4-aminobutyrate aminotransferase, mitochondrial (Sus scrofa, UniProt P80147). Description: Compound was evaluated for the competitive inhibition of Gamma-amino-N-butyrate transaminase.
Assay [2] concerns the target 4-aminobutyrate aminotransferase, mitochondrial (Sus scrofa) (UniProt P80147). Description: Compound was evaluated for the kinetic constant for the inactivation of Gamma-amino-N-butyrate transaminase.
In assay [3] the target is T1, 4-aminobutyrate aminotransferase, mitochondrial. Description: Compound was evaluated for the kinetic constant for the inhibition of Gamma-amino-N-butyrate transaminase.
Assay [4] in a line: Selectivity ratio of Kinact/KI.
The target in assay [5] is 4-aminobutyrate aminotransferase, mitochondrial (Sus scrofa) (UniProt P80147). Description: Compound was evaluated for the kinetic constant for the inhibition of Gamma-amino-N-butyrate transaminase; NA means no inactivation.
Chain of 4-aminobutyrate aminotransferase, mitochondrial (Sus scrofa) (P80147 whole entry): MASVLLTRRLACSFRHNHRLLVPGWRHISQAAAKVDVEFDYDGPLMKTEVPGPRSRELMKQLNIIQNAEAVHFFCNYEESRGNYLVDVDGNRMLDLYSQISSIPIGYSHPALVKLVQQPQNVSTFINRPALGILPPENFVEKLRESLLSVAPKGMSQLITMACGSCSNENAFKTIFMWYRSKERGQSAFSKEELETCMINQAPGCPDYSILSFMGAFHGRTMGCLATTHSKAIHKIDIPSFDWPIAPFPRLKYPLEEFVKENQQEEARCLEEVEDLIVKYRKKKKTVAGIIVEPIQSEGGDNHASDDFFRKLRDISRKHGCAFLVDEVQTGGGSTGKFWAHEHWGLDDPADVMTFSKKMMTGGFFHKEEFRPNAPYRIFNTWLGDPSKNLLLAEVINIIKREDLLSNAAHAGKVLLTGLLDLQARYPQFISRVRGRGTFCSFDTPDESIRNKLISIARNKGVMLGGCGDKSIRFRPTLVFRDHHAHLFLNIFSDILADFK

T1 sequence (P80147 whole entry): as above

Regarding `N[C@H]1[C@H](Br)[C@@H](C(=O)O)C[C@@H]1Br`, the values for the Ki in assay [1] and in assay [3] were 4.2 mM and 49 mM, respectively. Also, the kinact in assay [2] amounted to 0.18 min⁻¹. The K inact/Ki in assay [4] was 0.0617 M⁻¹ s⁻¹.
On to `N[C@H]1[C@H](Br)[C@@H](C(=O)O)C[C@@H]1F`, for which the affinity in assay [1], expressed as Ki, was 4.7 mM. Also, the NA result in assay [5] is “No inactivation”.
For the compound `N[C@H]1C[C@@H](C(=O)O)CC1(F)F`, the NA entry in assay [5] was “No inactivation”.
Turning to `N[C@H]1[C@@H](F)[C@@H](C(=O)O)C[C@@H]1Br`, the inhibition constant (Ki) in assay [1] was determined as 1.6 mM; in assay [3], 3.14 mM. Besides, the inactivation rate constant (kinact) in assay [2] was found to be 0.023 min⁻¹. In assay [4], the K inact/Ki is 0.122 M⁻¹ s⁻¹.
Turning to `N[C@H]1C[C@@H](C(=O)O)C[C@@H]1F`, the inhibition constant (Ki) in assay [1] was 0.012 mM; in assay [3] it was 0.43 mM. The inactivation rate constant (kinact) in assay [2] stood at 0.03 min⁻¹. Moreover, the K inact/Ki in assay [4] was 1.17 M⁻¹ s⁻¹.
With `N[C@H]1[C@H](O)[C@@H](C(=O)O)C[C@@H]1Br`, the Ki in assay [1] was 5.9 mM. In assay [5], the NA result was “No inactivation”.
`N[C@@H]1CC[C@H](C(=O)O)[C@H]1Br` showed an inhibition constant Ki in assay [1] of 12 mM. Further, the NA result in assay [5] was “No inactivation”.
In the same order, the values of `N[C@H]1[C@H](Br)[C@@H](C(=O)O)C[C@@H]1O` are 13 mM and “No inactivation”.
Regarding `N[C@H]1C[C@@H](C(=O)O)C[C@@H]1Br`, the inhibition constant Ki in assay [1] is 3.6 mM; in assay [3], 16 mM. The kinact in assay [2] worked out at 0.02 min⁻¹. Besides, the K inact/Ki in assay [4] turned out to be 0.0217 M⁻¹ s⁻¹.
Regarding `NC(CF)CCC(=O)O` (configuration not stated), in assay [2], the kinact is 0.5 min⁻¹. In addition, the inhibitory constant (Ki) in assay [3] is 0.4 mM.

As a reminder, the Ki is the equilibrium dissociation constant of an inhibitor or competing ligand from its target. Higher therefore signals weaker binding. As a reminder, the kinact is the rate constant of inactivation at saturating inhibitor.
